Molecules are shown by their SMILES. Bounds are passed on as bounds.

One test concerns the target C-Kit (Homo sapiens (Human), UniProt P10721). Nature of the test: Enzyme selectivity test (ELISA), C-Kit. The test is classed as biochemical. On the procedure:
(§1) 1) Enzyme reaction substrate Poly(Glu, Tyr) 4:1 was diluted to 20 μg/mL with potassium-free PBS (10 mM sodium phosphate buffer, 150 mM NaCl, pH 7.2-7.4), and the microtiter plate was coated with 125 μL/well and placed at 37° C. for 12-16 hours of reaction. The liquid in the well was discard. The plate was washed three times with T-PBS (potassium-free PBS containing 0.1% Tween-20, 200 μL/well), 5 minutes each time. The ELISA plate was dried in an oven at 37° C. for 1 to 2 hours.
(§2) 2) Reaction buffer (50 mM HEPES pH 7.4, 50 mM MgCl2, 0.5 mM MnCl2, 0.2 mM Na3VO4, 1 mM DTT) diluted ATP solution (49 μL) was added to each well, 1 μL of the compound to be tested was added to each well, and then 50 μL of DDR2 kinase domain recombinant protein diluted in the reaction buffer was added to start the reaction. Two control wells without ATP were set in each experiment. The plate placed on a shaker (100 rpm) at 37° C. for 1 hour of reaction. The liquid in the well was discarded and the plate was washed three times with T-PBS.
(§3) 3) Antibody PY99 dilution solution (the antibody was diluted 1:500 with T-PBS containing BSA 5 mg/mL) was added at 100 μL/well, and shaken on a shaker at 37° C. for 0.5 hour of reaction. The liquid in the well was discarded and the plate was washed three times with T-PBS.
(§4) 4) Horseradish peroxidase labeled goat anti-murine secondary antibody dilution solution (the antibody is diluted 1:2000 with T-PBS containing BSA 5 mg/ml) was added at 100 μL/well, and shaken on a shaker at 37° C. for 0.5 hour of reaction. The liquid in the well was discarded and the plate was washed three times with T-PBS.
(§5) 5) 2 mg/ml of OPD color developing solution [diluted with 0.1 M citric acid-sodium citrate buffer (pH=5.4) containing 0.03% H2O2] was added at 100 μL/well and reacted for 1 to 10 minutes at 25° C. in the dark.
(§6) 6) 2M H2SO4 was added at 50 μL/well to stop the reaction, and a tunable wavelength microplate reader VERSAmax was used for reading at a wavelength of 490 nm.
(§7) The IC50 value was obtained by four-parameter regression using the software that came with the microplate reader. […]
Background: In an ELISA, binding on a coated surface is turned into a signal by an enzyme label.

The target of another test is Src (Homo sapiens (Human), UniProt P12931). Put plainly: Enzyme selectivity test (ELISA), Src. The test is classed as biochemical. The protocol: as §1, §2, §3, §4, §5, §6, §7
The subject of test [1] is pulmonary fibrosis induced by bleomycin in mice. Nature of the test: Hydroxyproline level of the whole lung. The class given is in vivo, mouse. To be noted: Effect example 5; compared with the BLM control group. On the procedure: The change in hydroxyproline was determined by using a hydroxyproline detection kit, the steps are as follows:
1) The wet weights of the lung tissues in different groups were accurately weighed, and the lung tissues were placed in a 20 ml centrifuge tube after weighing.
2) 1 ml of hydrolysate was added to a 20 ml centrifuge tube and the tube was placed in boiling water at a constant temperature for 20 minutes.
3) The pH of the sample was adjusted to 6.0-8.0 with the reagents provided in the kit.
4) The reagents in the centrifuge tube were made up to 10 ml with distilled water, and mixed thoroughly.
5) 5 ml of hydrolysate was taken from the centrifuge tube, an appropriate amount of activated carbon was added, mixed thoroughly, centrifuged at 3500 rpm for 10 minutes in a centrifuge, and 1 ml of upper supernatant layer was taken for subsequent monitoring.
6) Reagents 1, 2, and 3 were added in order, mixed thoroughly, and then placed in a water bath at 60° C. for 15 minutes, then placed at room temperature for 5 minutes, and centrifuged in a centrifuge at 3500 rpm for 10 minutes. […] Distilled water was used as the zero setting and the absorbance value of each sample at 550 nm wavelength was determined.
7) A standard curve was drew based on the absorbance of the standard, and used as a basis to determine the hydroxyproline content of each sample. […]

The test system is the same in test [2]. Put plainly: mRNA levels of fibrosis-related markers in lung tissue (qRT-PCR). The class given is in vivo, mouse. To be noted: 60, 90 mg/kg. The protocol:
About 30 mg of cryopreserved lung tissue was weighed and homogenized and lysed by adding 200 μL of Trizol (Takara, 9109 #). The fluid after the lysis in the well was collected by the RNA sterilization-grade pipette tip and transferred to the corresponding sterile EP tube. […] of chloroform was added, shaken vigorously for 30 sec, and centrifuged for 15 minutes in a centrifuge at 4° C. at 12000 rpm. The upper aqueous layer was transferred to a new EP tube, an equal volume of isopropanol was used to precipitate the RNA in the aqueous phase, and the tube was allowed to stand at −20° C. for more than 1 hr. And then the tube was centrifuged for 15 min at 4° C. at 12000 rpm, and the supernatant was discarded. 75% ethanol was added to wash the RNA pellet, and then the tube was centrifuged for 15 min at 4° C. at 12000 rpm, and the supernatant was discarded. The tube was placed at room temperature for 10-20 min to dry the RNA pellet. 25-200 μL of RNase-free water was added for dissolution and stored at −80° C.
PrimeScript™ RT Master Mix (Takara, RR036A) was selected for mRNA reverse transcription. Please refer to the instructions for the system. In short, 1 μg of mRNA was added to a 20 μL system, mixed and then kept at a constant temperature in a 37° C. water bath for 15 minutes, and then the enzyme was inactivated at 85° C. for 5 seconds. After centrifugation, double distilled water was used to dilute 10 times.
Q-PCR technology used 2×SYBR Green qPCR Master Mix (B21202, Biomake), and the reaction system could be prepared according to the instruction (10 μL of 2×SYBGreen, 8.8 μL of cDNA template, 1.2 μL of 5 μM primer Mix). The reaction conditions are: pre-denaturation at 95° C. for 5 min, denaturation at 95° C. for 30 sec, annealing at 60° C. for 30 sec, and extension at 72° C. for 30 sec, the number of reaction cycles is 40 cycles.
The experiment used qRT-PCR technology to determine the mRNA levels of fibrosis-related markers in lung tissue.
The experimental method was the same as that for the evaluation of the mRNA levels of inflammatory cytokines.
Background: Quantitative PCR measures a nucleic acid by following its amplification.

Sequence of Src (P12931 whole entry, looked up, species assumed): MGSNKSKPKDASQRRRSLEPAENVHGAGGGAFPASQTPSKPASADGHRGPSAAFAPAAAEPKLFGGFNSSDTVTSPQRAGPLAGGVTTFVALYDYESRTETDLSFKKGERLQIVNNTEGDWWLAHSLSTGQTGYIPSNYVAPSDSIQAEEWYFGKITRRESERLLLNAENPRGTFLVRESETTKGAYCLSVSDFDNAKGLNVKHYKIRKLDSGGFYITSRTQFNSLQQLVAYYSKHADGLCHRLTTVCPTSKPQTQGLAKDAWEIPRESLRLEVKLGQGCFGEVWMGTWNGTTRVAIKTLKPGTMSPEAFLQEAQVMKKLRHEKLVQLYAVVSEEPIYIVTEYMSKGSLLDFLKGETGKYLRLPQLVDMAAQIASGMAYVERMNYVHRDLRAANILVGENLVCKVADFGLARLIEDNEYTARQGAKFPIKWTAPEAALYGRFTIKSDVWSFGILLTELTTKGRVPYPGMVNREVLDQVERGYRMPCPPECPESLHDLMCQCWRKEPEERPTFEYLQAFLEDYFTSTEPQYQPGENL
Sequence of C-Kit (P10721 26-976): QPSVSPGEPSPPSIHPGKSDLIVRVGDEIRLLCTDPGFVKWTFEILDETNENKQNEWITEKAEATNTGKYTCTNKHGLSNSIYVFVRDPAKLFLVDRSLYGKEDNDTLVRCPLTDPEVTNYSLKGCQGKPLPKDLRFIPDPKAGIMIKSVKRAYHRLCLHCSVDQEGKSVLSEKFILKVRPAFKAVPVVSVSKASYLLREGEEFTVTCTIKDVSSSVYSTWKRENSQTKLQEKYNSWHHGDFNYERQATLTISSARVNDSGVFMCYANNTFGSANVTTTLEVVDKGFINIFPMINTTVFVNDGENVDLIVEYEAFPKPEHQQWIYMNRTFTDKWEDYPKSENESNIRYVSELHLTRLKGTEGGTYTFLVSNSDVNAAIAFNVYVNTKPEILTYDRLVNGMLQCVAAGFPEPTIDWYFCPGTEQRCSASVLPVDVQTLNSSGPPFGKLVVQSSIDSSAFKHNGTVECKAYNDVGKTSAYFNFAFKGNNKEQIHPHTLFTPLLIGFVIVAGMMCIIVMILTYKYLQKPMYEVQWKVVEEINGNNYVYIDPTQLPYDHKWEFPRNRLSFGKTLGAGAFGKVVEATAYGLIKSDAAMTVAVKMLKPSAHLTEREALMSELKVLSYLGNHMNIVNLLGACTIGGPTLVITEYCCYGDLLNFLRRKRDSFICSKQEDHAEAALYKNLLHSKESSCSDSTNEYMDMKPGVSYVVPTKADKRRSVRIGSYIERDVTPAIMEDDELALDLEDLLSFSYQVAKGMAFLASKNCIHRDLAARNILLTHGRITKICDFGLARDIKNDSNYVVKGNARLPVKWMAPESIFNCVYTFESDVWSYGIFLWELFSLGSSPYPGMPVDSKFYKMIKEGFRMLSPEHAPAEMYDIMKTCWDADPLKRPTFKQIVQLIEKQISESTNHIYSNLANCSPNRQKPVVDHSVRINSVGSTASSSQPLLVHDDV

For orientation: IC50 means the midpoint of a concentration-inhibition curve. For the compound `O=C(Nc1cccc(C(F)(F)F)c1)c1ccc(C2CC2)c(-c2ccc3nc(Nc4cnn(C5CC5)c4)ncc3c2)c1` [Compound S15, 4-cyclopropyl-3-(2-((1-cyclopropyl-1H-pyrazol-4-yl)amino)quinazolin-6-yl)-N-(3-(trifluoromethyl)phenyl)benzamide], the IC50 at C-Kit was above 1000 nM. At Src, this compound showed an IC50 above 100 nM. Besides, the “hydroxyproline level of the whole lung” value in test [1] was “significantly reduce the level of hydroxyproline”. In test [2], the “reduction of expression (mRNA) of Collagen1-α1” value is given as “about 90%”, the “reduction of expression (mRNA) of TGF-β1” value is recorded as “about 90%” and the “reduction of expression (mRNA) of α-SMA” value is reported as “about 90%”.

Source of the values: patent US11655239B2 (SHANGHAI INSTITUTE OF MATERIAL MEDICA, CHINESE ACADEMY OF …, priority 2019, dated 2023).
